Results: paper PMC5075699
Where “and” joins values, the source holds several entries; their conditions need not be identical. Equal values may be shown once.

How the values were obtained:
rodents = test system: rodents; design: method as in Sidrauski et al., 2013; details: delivered immediately after a stimulus or behavioral task; ref Sidrauski et al., 2013; cited from earlier work
[1] = design: method as in Di Prisco et al., 2014; details: acute treatment; ref Di Prisco et al., 2014; cited from earlier work
nontransgenic mice [2] = test: Contextual fear conditioning; details: ISRIB 2.5mpk, individual mice
hAPP-J20 (J20) mice = test: Morris water maze #2, hAPP-J20 mice; details: for %Target Quadrant / Crossing Frequency / Latency to Target / Training Latency: ISRIB 2.5mpk in DMSO/PEG
[3] = ISRIB plasma levels in satellite mice (pharmacokinetic data); details: 2.5 hours post-administration, individual mouse
nontransgenic mice [4] = test: Pilot Morris water maze #1 (spatial learning and memory); details: for MWM training distance Trial*ISRIB (linear mixed effects regression model) / MWM training latency Trial*ISRIB (linear mixed effects regression model): vs vehicle; for MWM training latency Trial*ISRIB (linear mixed effects regression model): 6-7 month-old nontransgenic mice; for %Target Quadrant (percent time spent in target quadrant) / Crossing Frequency (number of platform crossings) / Latency to Target: individual mice
[5] = 0.1 mpk i.p. after each training trial
[6] = 0.25 mpk i.p. after each training trial
[7] = 24-hour probe trial (Fig 2B), 0.1mpk
[8] = 24-hour probe trial (Fig 2B), 0.25mpk
[9] = 72-hour probe trial (Fig 2C), 0.1mpk

## O=C(COc1ccc(Cl)cc1)NC1CCC(NC(=O)COc2ccc(Cl)cc2)CC1 (stereo not shown) [ISRIB]
rodents
  effect on spatial and fear memory: enhance spatial and fear memory
[1]
  effect on object-place learning: interfered with proper object-place learning
Nontransgenic mice [2]; Fig 3A
  Post-Shock: 6.61 and 2.22 and 0 and 2.28 and 2.39 and 18.72 and 31.39 and 15.72 and 15.83 and 8.22 and 17.11 and 7.56 and 7 and 11.33 and 13.11 and 8.28 and 20.33 and 19.33 and 29.44 and 32.33 and 27.56
  Pre-Shock: 1.67 and 0 and 0.97 and 2.33 and 0.86 and 33.64 and 1.83 and 1.44 and 1.08
Nontransgenic mice [2]; Fig 3B
  1st 4 min context: 11.1 and 4.75 and 30.01 and 15.49 and 4.44 and 18.51 and 26.85 and 38.13 and 45.92 and 9.61 and 2.13 and 12.76 and 6.75 and 15.99 and 18.96 and 31.54 and 27.17 and 21.38 and 27.25 and 14.79 and 16.25 and 41.57 and 18.94 and 33.54 and 25.69 and 47.14 and 19.89 and 27.42 and 56.35 and 28.89
  2nd 4 min context: 31.29 and 5.25 and 33.13 and 30.94 and 0 and 19.46 and 29.43 and 31.87 and 22.86 and 6.96 and 10.43 and 9.1 and 5.42 and 17.46 and 22.21 and 24.07 and 43.26 and 31.68 and 31.22 and 19.13 and 25.14 and 47.79 and 41.86 and 24.76 and 22.15 and 38.53 and 12.88 and 14.39 and 38.49 and 10.29
  8 min context: 21.54 and 5 and 31.79 and 23.22 and 2.22 and 18.99 and 28.14 and 35.24 and 34.55 and 8.28 and 6.28 and 10.93 and 6.08 and 16.72 and 20.58 and 27.86 and 35.22 and 26.54 and 29.26 and 16.96 and 20.81 and 44.68 and 30.75 and 29.15 and 24.19 and 43.22 and 16.38 and 20.9 and 47.8 and 19.59
hAPP-J20 (J20) mice; 0.25 or 2.5 mpk
  learning during the training trials: did not observe an improvement in learning
hAPP-J20 (J20) mice; 72 hour probe trial, 0.25 or 2.5 mpk
  spatial memory treatment effects: did not observe significantly positive treatment effects
hAPP-J20 (J20) mice; Fig 4E, individual mice
  %Target Quadrant: 31.3647% and 28.3617% and 19.6864% and 31.5871% and 22.6894% and 33.1443% and 19.1302% and 8.787% and 27.8056% and 30.5861% and 20.9098% and 21.7996%
  Crossing Frequency: 3 and 2 and 0 and 1
  Latency to Target: 3.136 and 38.1715 and 60 and 8.542 and 51.318 and 28.5619 and 11.0777
hAPP-J20 (J20) mice; Fig 4F, individual animals
  Crossing Frequency: 3 and 1 and 0 and 4
  Latency to Target: 7.941 and 17.6843 and 60 and 4.8048 and 4.538 and 12.7461 and 25.1585 and 9.076
hAPP-J20 (J20) mice; Fig 4F, individual mice
  %Target Quadrant: 32.9218% and 31.4759% and 23.2455% and 26.026% and 17.9068% and 37.2595% and 13.013% and 23.1343% and 9.676% and 36.9258% and 20.7986% and 27.6944%
hAPP-J20 (J20) mice; Trial 8, individual mice (Fig 4A-D)
  Training Latency: 120.187 (5×) and 47.5142 and 79.2125 and 54.9216 and 27.9613 and 39.306 and 87.0204 and 3.937
hAPP-J20 (J20) mice; Trial 9, individual mice (Fig 4A-D)
  Training Latency: 119.052 and 25.2252 and 42.5759 and 34.301 and 6.673 and 11.3447 and 10.8775 and 120.187 (2×) and 96.2296 and 50.5839 and 5.272
hAPP-J20 (J20) mice; Trial 10, individual mice (Fig 4A-D)
  Training Latency: 11.3447 and 82.5492 and 23.8906 and 120.187 (3×) and 29.1625 and 43.9106 and 12.3457 and 39.2392 and 38.9056 and 8.008
hAPP-J20 (J20) mice; Trial 11, individual mice (Fig 4A-D)
  Training Latency: 26.293 and 117.251 and 19.4861 and 120.187 (5×) and 28.2282 and 11.4781 and 13.4134 and 31.1645
[3]; Morris water maze #1 satellite mice, 0.25 mpk i.p. (1% DMSO/saline), 0.25 mg/kg
  Plasma concentration: 65.3 ng/mL and 71.9 ng/mL
[3]; Morris water maze #2 satellite mice, 0.25 mpk i.p. (1% DMSO/saline), 0.25 mg/kg
  Plasma concentration: 66.6 ng/mL and 65.6 ng/mL
[3]; Morris water maze #2 satellite mice, 2.5 mpk i.p. (DMSO/PEG), 2.5 mg/kg
  Plasma concentration: 657 ng/mL and 348 ng/mL and 286 ng/mL
Nontransgenic mice [4]; [5]
  MWM training distance Trial*ISRIB (linear mixed effects regression model): -35 cm/day
  MWM training latency Trial*ISRIB (linear mixed effects regression model): −1.2 sec/day
Nontransgenic mice [4]; [6]
  MWM training distance Trial*ISRIB (linear mixed effects regression model): -36 cm/day
  MWM training latency Trial*ISRIB (linear mixed effects regression model): −0.9 sec/day
Nontransgenic mice [4]; [7]
  %Target Quadrant (percent time spent in target quadrant): 44.0932% and 16.8608% and 27.6206% and 29.7282% and 34.8863% and 38.4914% and 18.802% and 29.5064% and 21.1869% and 54.6312% and 23.8491% and 29.5618% and 18.2474% and 16.6944%
  Crossing Frequency (number of platform crossings): 3 and 1 and 0 and 5 and 2
  Latency to Target: 15.4154 and 14.3143 and 9.776 and 14.281 and 10.9109 and 23.8572 and 8.075 and 28.4618 and 6.173 and 49.9833 and 54.0207 and 5.439
Nontransgenic mice [4]; [8]
  %Target Quadrant (percent time spent in target quadrant): 41.7083% and 28.508% and 15.9179% and 23.35% and 35.33% and 30.3383% and 37.9922% and 36.7721% and 24.4038% and 36.5502% and 36.6057% and 35.6628% and 17.3045% and 11.2035% and 27.787%
  Crossing Frequency (number of platform crossings): 4 and 1 and 2 and 3 and 5
  Latency to Target: 12.5459 and 7.174 and 15.2486 and 19.2526 and 12.7795 and 12.9463 and 6.24 and 43.31 and 13.5135 and 13.6804 and 10.4438 and 8.842 and 6.84 and 29.0624 and 19.3861
Nontransgenic mice [4]; [9]
  %Target Quadrant (percent time spent in target quadrant): 24.3483% and 20.0222% and 43.7604% and 8.4304% and 14.8641% and 36.883% and 28.6744% and 19.3012% and 32.6678% and 33.9434% and 13.6439% and 27.6206% and 18.9684% and 18.4692% and 26.345%
  Latency to Target: 47.2473 and 25.4922 and 4.571 and 12.4458 and 24.0908 and 40.0734 and 23.29 and 28.6286 and 42.042 and 38.3383 and 5.506 and 17.9513
